# Laboratory results: patent US8273724B2, “Melanoma antigens and their use in diagnostic and therapeutic methods” (The United States of America, as represented by the …, priority 1994, dated 2012)
# Where a SMILES comes first, the peptide text is derived from it.
# What was measured:
# HLA-A2.1 = HLA-A2.1 (Homo sapiens, UniProt P04439, D140Y/D185E/D98H/E176V/E277Q/G131W/G231S/I119V/I121R/I166T/I218V/L300P/L318F/N151K/N90K/P208A/P217A/Q86G/Q94H/R138H/R169H/T345S); experiment: HLA-A2.1 binding assay of modified peptides, inhibition of radiolabeled Hbc 18-27 (Example 5)
# [1] = system: T2 cell lines preincubated with peptide; experiment: Recognition of modified peptides by natural epitope (M9-2, G9-154, G9-209, G9-280) reactive T-cells, 51Cr release on peptide-pulsed T2 cells (Example 5); assay type: cell-based, human
# Experimental: (§1) Assessment of antigen recognition by CTL. ^51Cr release cytotoxic assays were performed to detect the recognition of peptide and melanoma cells by CTL. To analyze peptide recognition, T2 cell lines were preincubated for 2 h at 37° C. with 1 ug/ml peptide, washed and used as target cells in a ^51Cr release cytotoxic assay. The melanoma lines 624mel was established in our laboratory (See Example 1).
# In order to make more immunogenic peptides for induction of anti-melanoma T-cells than natural melanoma epitopes, a variety of peptides in which at least 1 amino acid was changed based on consensus motifs in peptides binding to a specific MHC Class I allele Falk, et al. (1991) Nature 351:290; Kubo et al. (1994) J. Immunol 152:3913; Parker, K. et al. (1992) Journal of Immunology 149:3580; Ruppert, J. et al. (1993) Cell 74:929-937) (Tables 14, 15, 16, and 17). […] By changing amino acid at the 1st, 2nd, 3rd or 9th positions which are important for HLA-A2 binding to the peptide, but less important for recognition by T-cell receptors, artificial peptides which can bind to HLA-A2.1 with higher affinity and still be recognized by natural epitope specific T-cells may be generated.
# T2 cells = experiment: Induction of peptide specific CTL from PBL, 51Cr release against T2 cells with or without peptide (Example 5); assay type: cell-based, human; conditions: E:T = 3D40:1
# Experimental: (§2) Induction of peptide specific CTL PBMC were separated from peripheral blood of HLA-A2+ melanoma patients and normal donors by centrifugation on Ficoll-Hypaque gradients and used as fresh or cryopreserved samples. […] Two days later, 12 IU/ml interleukin 2 (IL-2) (Chiron Co., Emeryville, Calif.) were added to the cultures. Lymphocytes were then restimulated weekly as follows: responder cells were harvested, washed once and replated in 24-well plates at a concentration of 2.5×10^5 cells/ml in CM. Autologous PBMC were thawed, washed twice in PBS, resuspended at 5-8×10^6 cells/ml in CM and pulsed with 1 ug/ml peptide in 15-ml conical tubes (5 ml/tube) for 3 hours at 37° C. These PBMC (stimulators) were then irradiated at 3000 rads, washed once in PBS and added to the responder cells at responder:stimulator ratios ranging between 1:3 and 1:10. The next day, 12 IU/ml IL-2 were added to the cultures. The activity of these CTL was tested by cytotoxicity assays after at least 2 rounds (14 days) of peptide stimulation. To generate CTL from TIL cultures, the dissociated tumor suspension were cultured for 1-2 days in 10% FCS RPMI-1640 medium to allow tumor cell adherence. The lymphocytes, recovered from the non-adherent fraction, were used for the induction of peptide specific CTL as described above.
# as §1
# [2] = system: 624mel melanoma cell line; experiment: Induction of peptide specific CTL from PBL, 51Cr release against melanoma cells (Example 5); assay type: cell-based, human; conditions: target 624mel; E:T = 3D40:1; after 4 stimulations (Table 18)
# Experimental: as §2, §1
# HLA-A2.1+ T2 cell line = experiment: 51Cr release cytotoxicity assay: TIL lysis of T2 cells preincubated with synthetic MART-1 peptides (Example 2); assay type: cell-based, human
Compound,binding affinity to HLA-A2.1 compared with the natural epitope (HLA-A2.1),Recognition by G9-209 reactive T-cell [1],recognition by the original melanoma reactive T-cells [1],further results
CC(C)[C@H](NC(=O)[C@H](CO)NC(=O)[C@H](Cc1ccccc1)NC(=O)[C@@H]1CCCN1C(=O)[C@@H](NC(=O)[C@H](CCC(N)=O)NC(=O)[C@H](CC(=O)O)NC(=O)[C@@H](NC(=O)[C@@H](N)Cc1ccccc1)[C@@H](C)O)C(C)C)C(=O)O [G9-209-1F],higher binding affinity,"+ (+, recognized)",recognized,
CC(C)C[C@H](NC(=O)[C@@H](N)Cc1c[nH]c2ccccc12)C(=O)N[C@@H](CC(=O)O)C(=O)N[C@@H](CCC(N)=O)C(=O)N[C@H](C(=O)N1CCC[C@H]1C(=O)N[C@@H](Cc1ccccc1)C(=O)N[C@@H](CO)C(=O)N[C@H](C(=O)O)C(C)C)C(C)C [G9-209-1W2L],higher binding affinity,"+ (+, recognized)",recognized,
CC(C)C[C@H](NC(=O)[C@@H](N)Cc1ccc(O)cc1)C(=O)N[C@@H](CC(=O)O)C(=O)N[C@@H](CCC(N)=O)C(=O)N[C@H](C(=O)N1CCC[C@H]1C(=O)N[C@@H](Cc1ccccc1)C(=O)N[C@@H](CO)C(=O)N[C@H](C(=O)O)C(C)C)C(C)C [G9-209-1Y2L],higher binding affinity,"+ (+, recognized)",recognized,
CC(C)[C@H](NC(=O)[C@H](CO)NC(=O)[C@H](Cc1ccccc1)NC(=O)[C@@H]1CCCN1C(=O)[C@@H](NC(=O)[C@H](CCC(N)=O)NC(=O)[C@H](CC(=O)O)NC(=O)[C@@H](NC(=O)[C@@H](N)Cc1ccc(O)cc1)[C@@H](C)O)C(C)C)C(=O)O [G9-209-1Y],higher binding affinity,"+ (+, recognized)",recognized,
CC[C@H](C)[C@H](N)C(=O)N[C@H](C(=O)N[C@@H](CC(=O)O)C(=O)N[C@@H](CCC(N)=O)C(=O)N[C@H](C(=O)N1CCC[C@H]1C(=O)N[C@@H](Cc1ccccc1)C(=O)N[C@@H](CO)C(=O)N[C@H](C(=O)O)C(C)C)C(C)C)[C@@H](C)CC [G9-209-2I],higher binding affinity,"+ (+, recognized)",recognized,
CC[C@H](C)[C@H](N)C(=O)N[C@@H](CC(C)C)C(=O)N[C@@H](CC(=O)O)C(=O)N[C@@H](CCC(N)=O)C(=O)N[C@H](C(=O)N1CCC[C@H]1C(=O)N[C@@H](Cc1ccccc1)C(=O)N[C@@H](CO)C(=O)N[C@H](C(=O)O)C(C)C)C(C)C [G9-209-2L],higher binding affinity,"+ (+, recognized)",recognized,
CC[C@H](C)[C@H](N)C(=O)N[C@@H](CCSC)C(=O)N[C@@H](CC(=O)O)C(=O)N[C@@H](CCC(N)=O)C(=O)N[C@H](C(=O)N1CCC[C@H]1C(=O)N[C@@H](Cc1ccccc1)C(=O)N[C@@H](CO)C(=O)N[C@H](C(=O)O)C(C)C)C(C)C [G9-209-2M],higher binding affinity,"+ (+, recognized)",recognized,
CC(C)[C@H](NC(=O)[C@H](CCC(N)=O)NC(=O)[C@H](Cc1c[nH]c2ccccc12)NC(=O)[C@H](Cc1ccc(O)cc1)NC(=O)[C@H](CCC(N)=O)NC(=O)CNC(=O)[C@H](Cc1c[nH]c2ccccc12)NC(=O)[C@@H](NC(=O)[C@@H](N)CCCCN)[C@@H](C)O)C(=O)O [G9154],,,,"Recognition by G9-154 reactive T-cell [1]: + (+, recognized); % specific lysis by PBL stimulated with the peptide (T2 cells; target T2 + G9-154-2I, after 4 stimulations): 8%; % specific lysis by PBL stimulated with the peptide (T2 cells; target T2 + G9-154, after 4 stimulations): 14%; % specific lysis by PBL stimulated with the peptide (T2 cells; target T2, after 4 stimulations (Table 18)): 11%; % specific lysis by PBL stimulated with the peptide [2]: 5%"
CC[C@H](C)[C@H](NC(=O)CNC(=O)[C@H](C)NC(=O)[C@@H](N)Cc1ccccc1)C(=O)NCC(=O)N[C@H](C(=O)N[C@@H](CC(C)C)C(=O)N[C@H](C(=O)N[C@H](C(=O)O)C(C)C)[C@@H](C)O)[C@@H](C)CC [M9-2-1F],higher binding affinity,,recognized,"Recognition by M9-2 reactive T-cell [1]: + (+, recognized)"
CC[C@H](C)[C@H](NC(=O)CNC(=O)[C@H](CC(C)C)NC(=O)[C@H](C)N)C(=O)NCC(=O)N[C@H](C(=O)N[C@@H](CC(C)C)C(=O)N[C@H](C(=O)N[C@H](C(=O)O)C(C)C)[C@@H](C)O)[C@@H](C)CC [M9-2-2L],higher binding affinity,,recognized,"Recognition by M9-2 reactive T-cell [1]: + (+, recognized)"
CC[C@H](C)[C@H](NC(=O)CNC(=O)[C@@H](NC(=O)[C@H](Cc1ccc(O)cc1)NC(=O)[C@H](C)NC(=O)[C@H](C)N)[C@@H](C)CC)C(=O)N[C@@H](CC(C)C)C(=O)N[C@H](C(=O)N[C@H](C(=O)O)C(C)C)[C@@H](C)O [M9-2-3Y],higher binding affinity,,recognized,"Recognition by M9-2 reactive T-cell [1]: + (+, recognized)"
CC[C@H](C)[C@H](NC(=O)CN)C(=O)NCC(=O)N[C@H](C(=O)N[C@@H](CC(C)C)C(=O)N[C@H](C(=O)N[C@H](C(=O)N[C@H](C(=O)N[C@@H](CC(C)C)C(=O)O)[C@@H](C)CC)C(C)C)[C@@H](C)O)[C@@H](C)CC [M9-3] (H-GIGILTVIL-OH),,,,"% specific lysis (HLA-A2.1+ T2 cell line; T2 + peptide 10 ug/ml, effector TIL 660, E:T 40:1, 4 h): 0%; % specific lysis (HLA-A2.1+ T2 cell line; T2 + peptide 10 ug/ml, effector TIL 1074, E:T 40:1, 4 h): 10%; % specific lysis (HLA-A2.1+ T2 cell line; T2 + peptide 10 ug/ml, effector TIL 1235, E:T 40:1, 4 h): 20%; % specific lysis (HLA-A2.1+ T2 cell line; T2 + peptide 10 ug/ml, effector TIL clone A42, E:T 20:1, 4 h): 18%; % specific lysis (HLA-A2.1+ T2 cell line; purified peptide 1 ug/ml, TIL 501, E:T 40:1): 5%; % specific lysis (HLA-A2.1+ T2 cell line; purified peptide 1 ug/ml, TIL 620, E:T 40:1): 25%; % specific lysis (HLA-A2.1+ T2 cell line; purified peptide 1 ug/ml, TIL 660, E:T 40:1): 0%; % specific lysis (HLA-A2.1+ T2 cell line; purified peptide 1 ug/ml, TIL 1074, E:T 40:1): 1%; % specific lysis (HLA-A2.1+ T2 cell line; purified peptide 1 ug/ml, TIL 1088, E:T 40:1): 19%; % specific lysis (HLA-A2.1+ T2 cell line; purified peptide 1 ug/ml, TIL 1128, E:T 40:1): 0%; % specific lysis (HLA-A2.1+ T2 cell line; purified peptide 1 ug/ml, TIL 1143, E:T 40:1): 1%; % specific lysis (HLA-A2.1+ T2 cell line; purified peptide 1 ug/ml, TIL 1200, E:T 40:1): −2%; % specific lysis (HLA-A2.1+ T2 cell line; purified peptide 1 ug/ml, TIL 1235, E:T 40:1): 0%; % specific lysis (HLA-A2.1+ T2 cell line; purified peptide 1 ug/ml, TIL 1363, E:T 40:1): −2%; % specific lysis (HLA-A2.1+ T2 cell line; purified peptide 1 ug/ml, clone A42, E:T 20:1): −4%; recognition by either A42 or TIL1235 (HLA-A2.1+ T2 cell line; purified peptides, titration (FIG. 2)): not recognized"
